Measured values: PubChem BioAssay (NCI)
Values joined by “and” are separate entries in the source; they are usually repeats but may differ in a detail not shown here. Equal entries are not always repeated.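 All cell lines were grown in 96-well plates and treated with compound for 48 hours. GI50 is the concentration that inhibits growth by half. TGI: total growth inhibition.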

What was measured:
Assay in all cases: NCI tumour cell line growth inhibition, 48 h
[1] = system: DLD-1 colon
[2] = system: DMS 114 small cell lung
[3] = system: SNB-78 CNS
[4] = system: RXF-631 renal
[5] = system: BT-549 breast
[6] = system: HS 578T breast
[7] = system: MDA-MB-435
[8] = system: MDA-N
[9] = system: NCI/ADR-RES ovarian
[10] = system: P388/ADR leukemia
[11] = system: SN12K1 renal

Row | SMILES | TGI [1] [µM] | TGI [2] [µM] | TGI [3] [µM] | TGI [4] [µM] | other results
1 | CCOC(OC1=C(C#N)CCC1)C(CC)[Se]c1ccccc1 (stereo unspecified) | 41.2 | 10.4 | > 100 |  | 
2 | c1cncc(C2c3[nH]c4ccccc4c3CCN2CCN2CCCCC2)c1 (stereo unspecified) | > 100 | > 100 | > 100 | > 100 | 
3 | O=C(N=Nc1c(O)[nH]c2ccccc12)c1ccccc1O | > 100 | > 100 | > 100 |  | 
4 | CC[C@@]1(OC(=O)CCC(=O)O)C(=O)OCc2c1cc1n(c2=O)Cc2cc3ccccc3nc2-1 | > 100 | 1.08 | > 100 | 17.6 | TGI [5]: > 28.3 µM; TGI [6]: > 100 µM; TGI [7]: 3.22 µM; TGI [8]: 5.51 µM; TGI [9]: 0.791 µM
5 | CCCN(CCC)c1c([N+](=O)[O-])cc(S(N)(=O)=O)cc1[N+](=O)[O-] | 34.9 | 40.3 |  | 35.5 | 
6 | CC(O)C(NC(=O)C(CS)NC(=O)C(CO)NC(=O)C(CCCCN)NC(=O)C(Cc1c[nH]c2ccccc12)NC(=O)C(Cc1ccc(O)cc1)NC(=O)C(CS)NC(=O)C(N)Cc1ccccc1)C(N)=O (stereo unspecified) | 59.7 | 87.9 | 96 | 43.7 | TGI [6]: > 25 µM; TGI [7]: > 25 µM; TGI [8]: > 25 µM; TGI [9]: > 25 µM
7 | Cn1nnnc1[N-]Cc1ccccc1.[Au+].c1ccc([PH+](c2ccccc2)c2ccccc2)cc1 | 4.59 | 4.83 | > 66.9 |  | GI50 [1]: 1.91 µM; GI50 [2]: 1.53 µM; GI50 [3]: 6.86 µM
8 | CC(=O)O/C(C)=C\C(=O)O/N=C(\N)c1ccc(C)cc1 | 50.9 | 45 | 70.9 | 61.1 | 
9 | CC1=C(N2CC2)C(=O)c2nc3n(c2C1=O)CCC3O (stereo unspecified) |  | 2.68 | 0.131 |  | TGI [5]: 0.0377 µM; TGI [6]: 0.0585 µM; TGI [7]: 0.0484 µM
10 | Cc1ccc(-n2c(C)nc3c2C(=O)c2ccccc2C3=O)cc1 | > 100 |  | > 100 |  | 
11 | c1cc2c(cnc3cscc32)s1 | > 100 | > 100 | > 100 | > 100 | 
12 | CC1=C2N3C[C@@H](n4c(=O)n(C)c(=O)n43)C23CCC1n1c(=O)n(C)c(=O)n13 | > 100 | 76.3 | > 100 |  | 
13 | COc1ccc(/C=[N+](\[O-])[C@H](COCc2ccccc2)c2ccccc2)cc1 | > 100 | > 100 | > 100 | > 100 | 
14 | Cn1c(=O)c2c(nc3n2CCC(=O)N3)n(C)c1=O | > 100 | > 100 | > 100 | > 100 | 
15 | CCCCS(=N)(=O)CC[C@H](N)C(=O)O (stereo partly specified) | > 5000 | > 5000 | > 5000 |  | GI50 [5]: > 10000 µM; TGI [5]: > 10000 µM; GI50 [6]: > 8500 µM; TGI [6]: > 10000 µM; GI50 [7]: > 10000 µM; TGI [7]: > 10000 µM; GI50 [8]: > 5000 µM; TGI [8]: > 10000 µM; GI50 [9]: 1770 µM; TGI [9]: 5000 µM and > 6020 µM; TGI [10]: > 5000 µM; TGI [11]: 3750 µM
16 | CC(SC1=CC(=O)c2c(O)ccc(O)c2C1=O)C(=O)O (stereo unspecified) | > 57.1 | 44 | > 79.1 | > 100 | 
17 | O=C(O)c1[nH]c(C(=O)O)c(CC(F)(F)C(F)(F)C(F)(F)F)c1CC(F)(F)C(F)(F)C(F)(F)F | > 100 | > 100 | > 100 | > 100 | 
18 | C=CCN(N=O)C(=O)N(CCC)CCCC(NC(C)=O)C(=O)NCc1ccccc1 (stereo unspecified) |  | > 100 |  | > 100 | 

Row | SMILES | TGI [1] [µM] | TGI [2] [µM] | TGI [3] [µM] | TGI [4] [µM] | other results
19 | CC(C)(C)N=CN1CCC(C(c2ccccc2)c2ccccc2)CC1 | > 100 | > 100 | > 100 |  | 
20 | CCOC(=O)/C=C(/CN1C(=O)c2ccccc2C1=O)c1ccccc1 | > 100 | > 100 | > 100 |  | 
21 | CCc1cccc(C)c1NC(=O)CC1Sc2ccccc2NC1=O (stereo unspecified) | > 100 | > 100 | > 100 | > 100 | 
22 | c1ccc(COc2ccc3[nH]c4c(ncc5[nH]c6ccccc6c54)c3c2)cc1 | 17.7 | 38.3 | 40 |  | 
23 | CCCCCCCCCCCC(=O)C1=C(O)C(O)CCC1=O (stereo unspecified) | > 100 | 50.5 | 55.8 |  | 
24 | CCCN(CCCCC(NC(C)=O)C(=O)NCc1ccccc1)C(=O)NC (stereo unspecified) | > 100 | > 100 | > 100 | > 100 | 
25 | CC1(C)OC2C(=O)OC(COCc3ccccc3)C2O1 (stereo unspecified) | > 100 |  | > 100 | > 100 | 
26 | Cc1c2ncccc2c(C)c2c1[nH]c1ccccc12 | 23.2 |  | 36 |  | 
27 | [Cl][Sn]([c]1ccccc1)[c]1ccccc1 | 13.7 | 19.4 | 31 | 27 | GI50 [1]: 3.65 µM; GI50 [2]: 3.47 µM; GI50 [4]: 3.86 µM; GI50 [3]: 6.96 µM
28 | Nc1ccc2c(c1)[O][Sn]([c]1ccccc1)([c]1ccccc1)[O]C2=O | 15.4 | 18.7 | 23.4 | 29.9 | GI50 [5]: 1.98 µM; TGI [5]: 6.4 µM; GI50 [1]: 4.24 µM; GI50 [2]: 6.68 µM; GI50 [6]: 4.06 µM; TGI [6]: 22.2 µM; GI50 [7]: 6.78 µM; TGI [7]: 17.3 µM; GI50 [8]: 2.95 µM; TGI [8]: 9.26 µM; GI50 [9]: 9.08 µM; TGI [9]: 30.2 µM; GI50 [4]: 15.9 µM; GI50 [3]: 5.31 µM
29 | O=C1c2cccc3cc([N+](=O)[O-])cc(c23)C(=O)N1CCCN1CCN(CCCN2C(=O)c3cccc4cc([N+](=O)[O-])cc(c34)C2=O)CC1 | > 100 |  | 12.9 | 3.21 | 
30 | CN(C)CCNC(=O)c1cc([N+](=O)[O-])cc2ccc(-c3ccccc3)nc12 | 39.5 | 28.6 | > 60.9 |  | TGI [9]: 9.97 µM; TGI [11]: 15.2 µM
31 | Cn1cc(NC(=O)c2cc(NC(=O)CCCCCC(=O)Nc3cc(C(=O)Nc4cc(C(=O)NCCC(=N)N)n(C)c4)n(C)c3)cn2C)cc1C(=O)NCCC(=N)N | > 100 | > 100 | > 100 | > 100 | 
32 | COc1cc2ccc3c4cc(OC)c(OCc5ccccc5)cc4cnc3c2cc1OC | > 100 | > 100 | > 100 |  | 
33 | COc1ccc(N=Cc2ccc(N(CCC#N)CCC#N)cc2)cc1 | > 100 | > 100 | > 100 |  | TGI [5]: > 100 µM; TGI [6]: > 100 µM; TGI [7]: > 100 µM; TGI [8]: > 100 µM; TGI [9]: > 100 µM
34 | COc1cccc2c1C1=CC(=O)CCC1C(C)(C)O2 (stereo unspecified) | > 100 | 61.5 | > 100 | > 100 | 
35 | CCOC(=O)C(=O)Nc1c(C)cccc1CC | > 100 | > 100 | > 100 | > 100 | 
36 | COc1cc(C(C#N)NNC(=O)c2ccccc2O)ccc1O (stereo unspecified) | > 100 |  | > 100 |  | 
